In patent US12053465B2, “KCC2 expression enhancing compounds and uses thereof” (Whitehead Institute for Biomedical Research, priority 2017, dated 2024):
Entries after “also recorded” stand apart in the source; their conditions may differ.

How the values were obtained:
[1] = tested on: mouse models of autism and depression; details: intraperitoneal (IP) injection; previous work (59, 60); cited from earlier work
Mecp2 mutant mice [2] = experiment: Locomotion (infrared beam break) in Mecp2 mutant mouse model of RTT; type: in vivo
Experimental: (§1) We assessed the in vivo efficacy of KEECs by treating RTT disease-related symptoms such as breathing pauses and reduced locomotion (58) in a Mecp2 mutant mouse model of RTT. […] Plethysmograph and locomotion measurements were made in 4-6 week-old male Mecp2 mutant animals as a pre-treatment control time point and were then injected daily with KEECs KW-2449 or Piperine. Injection of the solvent DMSO or ethanol (EtOH) served as vehicle controls (FIG. 15A). The same two behavioral measurements in vehicle or KEEC-injected Mecp2 mutant animals were performed again two weeks after the start of daily injections. Each animal's ‘after injection’ data were compared to the ‘before injection’ level to assess behavioral changes.
(§2) Male Mecp2 mutant mice (Mecp2^−/y, e.g. the Bird model) between 4-12 weeks of age were used for the in vivo experiments. Subjects were divided into drug treated KO (Piperine/KW-2449), and vehicle treated KO (EtOH/DMSO) groups. Animals were randomly assigned to treatment arms with approximately equivalent numbers in each group.
KW-2449 stock solution was prepared at 10 mg/ml with DMSO, and Piperine stock solution at 30 mg/ml with EtOH. 20 μl of stock solution were diluted with 1 ml saline for injection. Daily drug treatments or sham injections were performed on both groups between P28 and P56, for at least two weeks, as Mecp2 mutant mice start to show symptoms around P28 and die around P60. Both following tests were performed on both groups of mice before the injections start, and repeated at the end of the injection period. The animals' performance was then compared before and after drug/vehicle injections.
To measure the subjects' nighttime locomotion, a 1-D infrared light-beam frame (ActiMot, TSE-systems, MO) was used. Animals were single-housed in new cages with the same setup as their home cages. The infrared monitor was set up for each cage and the beam crossings was recorded between 17:00 and 9:00 the next morning, where the lights were turned off between 19:00 and 7:00. The average beam crossing frequency during the night (21:00-5:00) was used as the subject's activity score, and the average beam crossing frequency after lights on (7:00-9:00) was used as the subject's day time activity score. The time periods where the mouse is stationary for >5 minutes are discarded to reduce artifact caused by the mouse sleeping. As we look at both day-time and night-time locomotion, a bonferroni correction with repeated comparison number of 2 was applied. All behavioral analyses were performed by experimenters who were blind to the treatment condition.

[3] = tested on: KCC2 expression (KCC2-2A-luciferase reporter); experiment: KCC2-2A-luciferase reporter compound screening with RTT KCC2 reporter neurons; type: cell-based, human; details: MECP2-null RTT human KCC2 reporter neurons; LINCS, SMART, ICCB libraries; Luc/CTG normalized to in-plate DMSO; hit = B score >3
How it was run: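 MECP2-null RTT human neurons carrying a KCC2-2A-luciferase reporter, differentiated 4 weeks, were treated with library compounds at 10 μM for 1–2 weeks at 37 °C. Lysate luciferase was normalized to CellTiter-Glo ATP per well and expressed as fold change over in-plate DMSO. Hits were called at B score >3.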

KCC2 expression = experiment: Western blot of KCC2 in cultured human RTT neurons; type: cell-based; details: Western blot; for KCC2 expression: cultured human RTT neurons
How it was run: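 Cultured neurons lysed in RIPA buffer (pH 7.6) with sonication; immunoblotted on PVDF with KCC2 antibody (1:2000) overnight at 4° C., HRP secondary.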

Mecp2 mutant mice [4] = experiment: Plethysmograph breathing measurement in Mecp2 mutant mouse model of RTT; type: in vivo; details: male Mecp2 mutant mice; daily injection, two weeks; vs DMSO- or EtOH-injected control
Experimental: as §1
as §2, with “group. […]” for “group.”
A full body plethysmograph chamber (EMKA Inc, PA) was used to measure breathing patterns. […] For each test, the subject was left in the chamber for 20 minutes, afterwards its breath pattern was recorded for the next 20 minutes, and the estimated amplitude modulation index (eAMI) was calculated from the breath trace to label breath pauses automatically. […]

In the case of `O=C(/C=C/C=C/c1ccc2c(c1)OCO2)N1CCCCC1` [Piperine, (2E,4E)-5-(Benzo[d][1,3]dioxol-5-yl)-1-(piperidin-1-yl)penta-2,4-dien-1-one], the “symptoms in mouse models of autism and depression” value [1] is given as “improved symptoms”, the day-time locomotion (Mecp2 mutant mice [2]; Mecp2 mutant animals, vs EtOH control) is given as “significantly increased day-time locomotion” and the locomotive activities (Mecp2 mutant mice [2]; male Mecp2 mutant mice, daily injection, two weeks, vs DMSO- or EtOH-injected control) is given as “increased locomotive activities”. The “B Score” value [3] was 4.69, the “concentration at which treatment significantly increases KCC2 expression” value (KCC2 expression; cultured ESC-derived human RTT neurons) was 10 µM and the KCC2 expression (KCC2 expression) was “induced KCC2 expression in a dose-dependent manner; also recorded: significant increase in KCC2 expression”. The KCC2 expression (KCC2 expression; listed as piperine) was “increase KCC2 expression” and the “frequency of breathing pauses” value (Mecp2 mutant mice [4]) was “significantly reduced the frequency of breathing pauses”.
